# Reference: patent US5591714A, “Derivatives of A82846” (priority 1994, dated 1997)
# Like-named read-outs stand apart in the source and are kept apart here.
# What was measured:
# [1] = tested on: vancomycin-susceptible (Vanco^s) E. faecium and E. faecalis; experiment: Susceptibility of vancomycin-susceptible enterococci, agar-dilution MIC; type: cell-based; conditions: n = 34 strains; end points read after 24-hour incubation
# Procedure: (§1) End points were read after 24-hour incubation. The ratio was calculated by dividing the mean MIC of the compound against the vancomycin-resistant strains by the mean MIC of the compound against the vancomycin-susceptible strains.
# Enterococcus faecium X66 = experiment: MIC, standard agar-dilution assay; type: cell-based
# Procedure: (§2) The formula I compounds have in vitro and in vivo activity against Gram-positive pathogenic bacteria. The MIC's were determined using a standard agar-dilution assays.
# ^b Formerly Streptococcus faecium X66
# Streptococcus pyogenes = experiment: In vivo activity, experimentally infected mice (ED50); conditions: Streptococcus pyogenes infection; doses administered subcutaneously to mice 1 and 4 hours postinfection
# [2] = tested on: vancomycin-resistant (Vanco^r) E. faecium and E. faecalis; experiment: Susceptibility of vancomycin-resistant enterococci, agar-dilution MIC; type: cell-based; conditions: for Geometric Mean MIC, Vanco^r Strains: n = 25 strains, end points read after 24-hour incubation
# Procedure: as §1
# [3] = tested on: Enterococcus faecalis 2041; experiment: MIC, standard agar-dilution assay; type: cell-based
# Procedure: as §2
# ^c Formerly Streptococcus faecalis 2041
# Streptococcus pneumoniae = experiment: In vivo activity, experimentally infected mice (ED50); conditions: Streptococcus pneumoniae infection; doses administered subcutaneously to mice 1 and 4 hours postinfection
# Staphylococcus aureus = experiment: as above; conditions: Staphylococcus aureus infection; doses administered subcutaneously to mice 1 and 4 hours postinfection
# [4] = tested on: Klebsiella pneumoniae X68; experiment: MIC, standard agar-dilution assay; type: cell-based
# Procedure: as §2
# Escherichia coli TEM = experiment: MIC, standard agar-dilution assay; type: cell-based
# Procedure: as §2
# [5] = tested on: Haemophilus influenzae C.L.; experiment: MIC, standard agar-dilution assay; type: cell-based
# Procedure: as §2
# [6] = tested on: Staphylococcus epidermidis 222; experiment: MIC, standard agar-dilution assay; type: cell-based
# Procedure: as §2
# Escherichia coli EC14 = experiment: MIC, standard agar-dilution assay; type: cell-based
# Procedure: as §2
# [7] = tested on: Staphylococcus aureus NRRL X1.1; experiment: MIC, standard agar-dilution assay; type: cell-based
# Procedure: as §2
# [8] = tested on: Streptococcus pyogenes C203; experiment: MIC, standard agar-dilution assay; type: cell-based
# Procedure: as §2
# [9] = tested on: Klebsiella pneumoniae X26; experiment: MIC, standard agar-dilution assay; type: cell-based
# Procedure: as §2
# Escherichia coli N10 = experiment: MIC, standard agar-dilution assay; type: cell-based
# Procedure: as §2
# [10] = tested on: Klebsiella pneumoniae KAE; experiment: MIC, standard agar-dilution assay; type: cell-based
# Procedure: as §2
# [11] = tested on: Staphylococcus epidermidis EPI270; experiment: MIC, standard agar-dilution assay; type: cell-based
# Procedure: as §2
# [12] = tested on: Staphylococcus aureus V41; experiment: MIC, standard agar-dilution assay; type: cell-based
# Procedure: as §2
# [13] = tested on: Haemophilus influenzae 76; experiment: MIC, standard agar-dilution assay; type: cell-based
# Procedure: as §2
# [14] = tested on: Staphylococcus aureus X400; experiment: MIC, standard agar-dilution assay; type: cell-based
# Procedure: as §2
# [15] = tested on: Staphylococcus aureus S13E; type: cell-based
# Procedure: as §2
# [16] = tested on: Streptococcus pneumoniae Park 1; type: cell-based
# Procedure: as §2
# [17] = tested on: six vancomycin-susceptible strains of staphylococci and enterococci; experiment: Effect of human serum on the MIC, serial dilution assay; type: cell-based; conditions: for MIC determined in absence of added serum: absence (-) of human serum; for MIC determined in presence of human serum: broth supplemented with human serum to 40%
# Source text: Another important property of the formula I compounds is the low binding of the compounds to serum proteins when compared with other glycopeptide antibiotics. […] The ratio of the MIC measured in the presence of added serum to the MIC measured in the absence of added serum ("ratio") is an indication of the degree of serum binding. […] A ratio that is greater than one, for example about ten, indicates the compound has a high degree of serum binding.
SMILES,"Geometric Mean MIC, Vanco^s Strains [1]",MIC (Enterococcus faecium X66),ED50 (Streptococcus pyogenes),Ratio (mean MIC vancomycin-resistant strains / mean MIC vancomycin-susceptible strains) [2],"Geometric Mean MIC, Vanco^r Strains [2]",MIC [3],ED50 (Streptococcus pneumoniae),ED50 (Staphylococcus aureus),MIC [4],MIC (Escherichia coli TEM),MIC [5],MIC [6],MIC (Escherichia coli EC14),MIC [7],MIC [8],MIC [9],MIC (Escherichia coli N10),MIC [10],MIC [11],MIC [12],also measured
CCN(CC)c1ccc(CNC2(C)CC(OC3C(Oc4c5cc6cc4Oc4ccc(cc4Cl)C(OC4CC(C)(N)C(O)C(C)O4)C4NC(=O)C(NC(=O)C6NC(=O)C(CC(N)=O)NC(=O)C(NC(=O)C(CC(C)C)NC)C(O)c6ccc(c(Cl)c6)O5)c5ccc(O)c(c5)-c5c(O)cc(O)cc5C(C(=O)O)NC4=O)OC(CO)C(O)C3O)OC(C)C2O)cc1 (centres unmarked) [Compound 56],0.73 µg/mL,1 µg/mL,.06 mg/kg/2,7.0,5.1 µg/mL,.5 µg/mL,.09 mg/kg/2,0.65 mg/kg/2,> 128 µg/mL,> 128 µg/mL,> 128 µg/mL,.5 µg/mL,> 128 µg/mL,.5 µg/mL,.5 µg/mL,> 128 µg/mL,> 128 µg/mL,> 128 µg/mL,2 µg/mL,.5 µg/mL,MIC [13]: > 128 µg/mL; MIC [14]: 1 µg/mL; MIC [15]: 1 µg/mL; MIC [16]: .5 µg/mL
CNC(CC(C)C)C(=O)NC1C(=O)NC(CC(N)=O)C(=O)NC2C(=O)NC3C(=O)NC(C(=O)NC(C(=O)O)c4cc(O)cc(O)c4-c4cc3ccc4O)C(OC3CC(C)(N)C(O)C(C)O3)c3ccc(c(Cl)c3)Oc3cc2cc(c3OC2OC(CO)C(O)C(O)C2OC2CC(C)(NCc3ccc(Cl)cc3)C(O)C(C)O2)Oc2ccc(cc2Cl)C1O (centres unmarked) [Compound 60],0.65 µg/mL,.25 µg/mL,0.06 mg/kg/2,5.5,3.6 µg/mL,.25 µg/mL,0.08 mg/kg/2,0.25 mg/kg/2,> 128 µg/mL,> 128 µg/mL,> 128 µg/mL,.25 µg/mL,> 128 µg/mL,.125 µg/mL,.06 µg/mL,> 128 µg/mL,> 128 µg/mL,> 128 µg/mL,.5 µg/mL,.25 µg/mL,MIC [13]: > 128 µg/mL; MIC [14]: .5 µg/mL; MIC determined in absence of added serum [17]: 0.76; ratio of the MIC in the presence of added serum to the MIC in the absence of added serum ([17]; indication of the degree of serum binding): 2.0; MIC determined in presence of human serum [17]: 1.5; MIC [16]: .06 µg/mL
"CN[C@H](CC(C)C)C(=O)N[C@H]1C(=O)N[C@@H](CC(N)=O)C(=O)N[C@H]2C(=O)N[C@H]3C(=O)N[C@H](C(=O)N[C@H](C(=O)O)c4cc(O)cc(O)c4-c4cc3ccc4O)[C@H](O[C@H]3C[C@](C)(N)[C@@H](O)[C@H](C)O3)c3ccc(c(Cl)c3)Oc3cc2cc(c3O[C@@H]2O[C@H](CO)[C@@H](O)[C@H](O)[C@H]2O[C@H]2C[C@](C)(N)[C@@H](O)[C@H](C)O2)Oc2ccc(cc2Cl)[C@H]1O [Compound A82846B, A82846B, reference compound]",0.51 µg/mL,–,–,18.4,9.4 µg/mL,–,–,–,–,–,–,–,–,–,–,–,–,–,–,–,ratio of the MIC in the presence of added serum to the MIC in the absence of added serum [17]: 1.5; MIC determined in absence of added serum [17]: 0.5; MIC determined in presence of human serum [17]: 0.75
